Columns and labels:
NFAT = assay: Jurkat T cell model, NFAT dependent luciferase activation by PMA plus ionomycin; type: cell-based; conditions: luciferase construct
Experimental: (§1) Substances according to the invention were investigated in an accepted Jurkat T cell model. The underlying mechanism is based on the fact that the transcriptional activity of lymphokines, such as e.g. the one of IL-2, is based on the coordinated activation of different transcription factors, such as e.g. NFAT and NF-κB. The effect of the substances according to the invention on said factors was evaluated in-vitro with the aid of a luciferase-coupled construct (KBF-luc). Thereby, an activation of transiently transfected cells (Jurkat T cells) through PMA (plus ionomycin in case of NFAT activation), driven by a NF-κB or NFAT dependent promoter, leads to a strong induction of luciferase gene expression. The inhibition of the luciferase activity was measured as a function of the dose rate of the substance according to the invention. A knowledgeable person skilled in the art can easily follow such procedure from the literature (e.g. in Yuan et al. (2002), Sancho et al. (2003), Do et al. (2004) and Cencioni et al. (2010)).

CB2 receptors [1] = biological target: T1, CB2 receptors (Homo sapiens, UniProt P34972); assay: Signal transduction in CHO-CB2-CREluc cells (luciferase; forskolin, AM630); conditions: for Effect on CB2 receptor (in words): text statement
T1 sequence (P34972 whole entry): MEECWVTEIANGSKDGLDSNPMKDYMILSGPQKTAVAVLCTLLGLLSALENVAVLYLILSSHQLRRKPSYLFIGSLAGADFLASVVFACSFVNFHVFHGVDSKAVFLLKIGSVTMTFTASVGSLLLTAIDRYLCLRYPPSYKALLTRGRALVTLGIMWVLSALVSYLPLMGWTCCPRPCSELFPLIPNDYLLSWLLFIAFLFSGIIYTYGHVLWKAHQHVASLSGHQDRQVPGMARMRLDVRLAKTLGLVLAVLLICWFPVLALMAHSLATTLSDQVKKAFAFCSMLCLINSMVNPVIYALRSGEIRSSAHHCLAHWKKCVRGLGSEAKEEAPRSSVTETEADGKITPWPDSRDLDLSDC

CB1 receptors [2] = biological target: T2, CB1 receptors (Homo sapiens, UniProt P21554); assay: Signal transduction in CHO-CB1-CREluc cells (luciferase; agonism, and antagonism against WIN); conditions: for Effect on CB1 receptor (in words): text statement
T2 sequence (P21554 whole entry): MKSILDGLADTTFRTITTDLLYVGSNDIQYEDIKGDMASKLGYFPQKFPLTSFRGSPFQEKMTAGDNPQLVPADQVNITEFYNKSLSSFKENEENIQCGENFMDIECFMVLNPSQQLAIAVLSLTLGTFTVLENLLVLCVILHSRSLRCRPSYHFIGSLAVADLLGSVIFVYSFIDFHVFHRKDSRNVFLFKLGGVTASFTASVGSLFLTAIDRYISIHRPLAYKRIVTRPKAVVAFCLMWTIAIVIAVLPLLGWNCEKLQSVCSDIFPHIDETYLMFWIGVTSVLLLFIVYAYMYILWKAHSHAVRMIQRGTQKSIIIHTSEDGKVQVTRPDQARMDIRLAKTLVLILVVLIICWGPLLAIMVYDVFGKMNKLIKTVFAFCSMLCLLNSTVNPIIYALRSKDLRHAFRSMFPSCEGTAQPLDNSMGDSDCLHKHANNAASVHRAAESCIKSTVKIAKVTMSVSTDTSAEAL

CB1 receptors [3] = biological target: T2, CB1 receptors; assay: biochemical; type: binding; set-up: purchased RBHCB1M400UA; host or cells: human cells (transfected); conditions: for Ki: dissociation constant, mean +/- SEM, competition with [3H]-CP55940; for CB1 (% binding): screening with a single high dose, displacement of [3H]-CP55940
CB2 receptors [4] = biological target: T1, CB2 receptors; assay: Competition binding study with [3H]-CP55940 in CB2 receptor transfected cell membranes; set-up: purchased RBXCB2M400UA; host or cells: human cells (transfected); conditions: for Ki: dissociation constant, mean +/- SEM, competition with [3H]-CP55940; for Ki (CB1): Ki (CB2) Selectivity for CB2 in comparison to CB1 (rounded): ratio of Ki values; for CB2 (% binding): screening with a single high dose, displacement of [3H]-CP55940
NF-κB = assay: Jurkat T cell model, NF-κB dependent luciferase activation by PMA; type: cell-based; conditions: luciferase construct
Experimental: as §1

[5] = listed as 2-Hydroxyethyl cannabidiolate
[6] = listed as Glyceryl cannabidiolate
[7] = listed as N-Methyl-sulfonyl cannabidiolate

SMILES	Inhibition of NFAT dependent activation of T cells (NFAT)	Effect on CB2 receptor (in words) (CB2 receptors [1])	Effect on CB1 receptor (in words) (CB1 receptors [2])	Ki (CB1 receptors [3])	CB1 (% binding) (CB1 receptors [3])	Ki (CB2 receptors [4])	Ki (CB1): Ki (CB2) Selectivity for CB2 in comparison to CB1 (rounded) (CB2 receptors [4])	CB2 (% binding) (CB2 receptors [4])	Agonism and antagonism at CB2 (CB2 receptors [1])	Effect on CB2 receptor (in words) (CB2 receptors [1]; [5])	Agonism and antagonism at CB1 (CB1 receptors [2])	Effect on CB1 receptor (in words) (CB1 receptors [2]; [5])	Effect on CB2 receptor (in words) (CB2 receptors [1]; [6])	Effect on CB1 receptor (in words) (CB1 receptors [2]; [6])	Effect on CB1 receptor (in words) (CB1 receptors [2]; listed as cyclohexyl cannabidiolate)	Inhibition of NF-κB dependent activation of T cells (NF-κB)	Binding to CB1 receptors (in words) (CB1 receptors [3])	Binding to CB2 receptors (in words) (CB2 receptors [4])	Effect on CB2 receptor (in words) (CB2 receptors [1]; [7])	Effect on CB1 receptor (in words) (CB1 receptors [2]; [7])
C=C(C)C1CCC(C)=CC1c1c(O)cc(CCCCC)c(C(=O)OCC(O)CCC)c1O (centres unmarked) [2-hydroxypentyl cannabidiolate]	inhibition	strong activation	inhibit																	
C=C(C)[C@@H]1CCC(C)=C[C@H]1c1c(O)cc(CCCCC)c(C(=O)OCCO)c1O [Compound III, 2-hydroxyethyl cannabidiolate]	inhibition	CB2 agonists	CB1 antagonists	3920 nM	77.3 ± 6.5%	375 ± 47.7 nM	10.4	90.3 ± 2.4%	+	strong activation	−	inhibit								
C=C(C)[C@@H]1CCC(C)=C[C@H]1c1c(O)cc(CCCCC)c(C(=O)OCC(O)CO)c1O (some centres unmarked) [Compound IV, Glyceryl cannabidiolate]	inhibition	CB2 agonists	CB1 agonists	2170 nM	90.2 ± 3.8%	277 ± 78.7 nM	7.8	101.6 ± 0.5%	+		+		strong activation	weak activation						
C=C(C)[C@@H]1CCC(C)=C[C@H]1c1c(O)cc(CCCCC)c(C(=O)OCC(O)CCC)c1O (some centres unmarked) [Compound V, 2-hydroxypentyl cannabidiolate]		CB2 agonists	CB1 antagonists	538 ± 53.9 nM	82.0 ± 8.0%				+		−									
C=C(C)C1CCC(C)=CC1c1c(O)cc(CCCCC)c(C(=O)OCCCCCC)c1O (centres unmarked) [Hexyl cannabidiolate]		antagonism	antagonism						+		+									
C=C(C)[C@@H]1CCC(C)=CC1c1c(O)cc(CCCCC)c(C(=O)OCCCCCC)c1O (some centres unmarked) [XI, Hexyl cannabidiolate]		CB2 agonists	CB1 agonists	538 ± 53.9 nM	92.2 ± 1.7%	510 ± 29 nM	1	97.2 ± 3.4%												
C=C(C)[C@@H]1CCC(C)=CC1c1c(O)cc(CCCCC)c(C(=O)OC2CCCCC2)c1O (some centres unmarked) [XII, Cyclohexyl cannabidiolate]			CB1 antagonists	538 ± 53.9 nM	81.5 ± 6.8%	67 ± 4 nM	37	99.2 ± 2.3%	0		−				antagonistic effect					
C=C(C)[C@@H]1CCC(C)=CC1c1c(O)cc(CCCCC)c(C(=O)OCCNS(C)(=O)=O)c1O (some centres unmarked) [XIII, N-Methyl-sulfonyl cannabidiolate]	strong inhibition	CB2 agonists	CB1 antagonists	538 ± 53.9 nM	98.9 ± 7.8%	0.012 ± 0.001 nM	22.5	104.9 ± 4.8%	+		−					strong inhibition	high binding affinity	high binding affinity	agonistic effect	antagonistic effect
